Results as given in patent publication US20260373119A1, “NOVEL COMPOUND, AND COMPOSITION FOR PREVENTING OR TREATING HER2-POSITIVE CANCER, COMPRISING SAME” (EWHA UNIVERSITY - INDUSTRY COLLABORATION FOUNDATION, priority 2022, published 2026).

Columns and labels:
[1] = system: NCI-N87 (HER2-positive gastric cancer cell line); test: antiproliferative effect, NCI-N87; type: cell-based; conditions: 72 hours
Description: (§1) The antiproliferative effects were measured after treating Compounds 1 to 22 for 72 hours on HCT15 (HER2-positive colorectal cancer cell line), NCI-N87 (HER2-positive gastric cancer cell line), T47D (HER2-negative breast cancer cell line), and HeLa (HER2-negative cervical cancer cell line). As a result, strong antiproliferative effects were generally observed in the NCI-N87 cell line (Table 2).
(§2) The antiproliferative effects of the candidate compound, resulting from HER2 inhibition, were evaluated. Specifically, to confirm the anticancer effects of the candidate compound, cancer cells were seeded at a density of 10^4 cells/well in a 96-well cell culture plate for 20 hours. The cells were starved in serum-free media for 4 hours, followed by replacement with media containing the compound at specified concentrations. The cells were then incubated for 72 hours under conditions of 5% CO2 at 37 °C. Cell viability was determined by adding 5 μL of EZ-CytoX to each well and measuring absorbance at 450 nm. The measurements were performed using an ELISA Microplate Reader (VersaMax, Molecular Devices).

[2] = system: T47D (HER2-negative breast cancer cell line); test: antiproliferative effect, T47D; type: cell-based; conditions: Homo sapiens, 72 hours
Description: as §1, §2

[3] = target: T1, (His)6-MED23391-582 / FITC-ELF3129-145 peptide (Homo sapiens, UniProt Q9ULK4); test: fluorescence polarization displacement assay; type: binding
T1 construct: 391-582 and fluorescein isothiocyanate (FITC)-labeled
T1 sequence (Q9ULK4 391-582 limits assumed): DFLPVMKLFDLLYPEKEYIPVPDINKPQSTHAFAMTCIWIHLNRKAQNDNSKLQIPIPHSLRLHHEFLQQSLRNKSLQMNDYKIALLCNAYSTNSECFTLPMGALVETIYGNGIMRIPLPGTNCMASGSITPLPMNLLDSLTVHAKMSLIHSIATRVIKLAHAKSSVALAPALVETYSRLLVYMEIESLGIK
Description: The samples, adjusted to a final volume of 50 μL, were incubated at room temperature for 30 minutes. Kd values were calculated using a least-squares non-linear fit method with Prism 6.0 software (GraphPad Software, USA). FP signals were measured in millipolarization (mP) units using an Infinite F200 PRO microplate reader (Tecan Group Ltd., Switzerland) at an excitation wavelength of 485 nm and an emission wavelength of 535 nm. For displacement analysis, graded concentrations of YK1 and unlabeled ELF3137-144 peptides were mixed with 80 nM (His) 6-MED23391-582 and 10 nM FITC-ELF3129-145.
The effect of compound YK1 was confirmed by measuring the reduction in FP signals, using unlabeled peptides as a positive control. The IC50 of each compound was determined by fitting the data to a four-parameter logistic equation using the Table Curve 2D program (SPSS Inc.). The Ki value was calculated using the Cheng-Prusoff equation (Ki=IC50/1+([Ligand]/Kd))

HER2 gene = HER2 gene (mRNA) expression; type: cell-based; conditions: dose-dependent
Description: To further confirm the effects of the candidate compound, […] quantitative analysis was performed. Specifically, RNA was extracted from cells using the FavorPrep Tri-RNA reagent (FAVORGEN Biotech Corp., Taiwan) and reverse-transcribed into complementary DNA (cDNA) using the PrimeScript RT Reagent Kit (Takara Bio Inc., Japan) following the manufacturer's instructions. Quantitative gene analysis was conducted using the SensiFAST SYBR No-ROX kit (Bioline, Canada). PCR was performed using the CFX96™ real-time PCR detection system (Bio-Rad, USA) under the following protocol: 95 °C for 2 minutes, and 27 cycles at 95 °C for 10 seconds, 56 °C for 10 seconds, and 72 °C for 20 seconds. The relative amount of mRNA was determined using the ΔΔCt method, and normalized against GAPDH or ACTIN. […]

PI3 Kinase (p110a/p85a) = PI3 Kinase (p110a/p85a) (Homo sapiens, UniProt P42336); test: kinase profiling, PI3 kinase; type: biochemical; conditions: read-out: In vitro kinase inhibitory activity (%)
Description: (§3) Kinase inhibitory activity of the candidate compound at 10 μM and 25 μM was assessed using Eurofins Kinase Profiling Services. Inhibitory effects on c-RAF, EGFR, ErbB2, ErbB4, and PI3 kinase were analyzed according to the Kinase Profiler Service Assay protocol.

[4] = target: HER family kinases (EGFR, ErbB2, and ErbB4) or kinases associated with the AKT/MAPK pathway (PI3 kinase and c-RAF); test: kinase profiling, summary over the panel; type: biochemical; conditions: 10 μM and 25 μM
Description: as §3

HER2 = test: IHC of NCI-N87 xenograft tumors, HER2; type: in vivo, mice; conditions: vs control group
Description: (§4) Xenograft mice were generated to evaluate the anticancer effects of the candidate compound. NCI-N87 and JIMT-1 cells (5×10^6 cells), dissolved in 100 μL of 1× phosphate-buffered saline (PBS), were subcutaneously injected into the right flanks of 5-week-old female athymic nude mice (Envigo, USA) or 4-week-old female NOD-SCID mice (Koatech, South Korea). When the tumors reached a volume of 90-100 mm^3, the mice were randomized into designated groups. For the NCI-N87 xenograft, intravenous administration was performed six times at 3-day intervals. For the JIMT-1 xenograft, intraperitoneal administration was performed eight times at 3-day intervals. […] Tumor size changes were monitored until the mean tumor size in the control group reached 2,000-2,500 mm^3. On day 28 for the NCI-N87 xenograft and day 46 for the JIMT-1 xenograft, the mice were sacrificed, and tumors were excised to determine relative tumor sizes. Tumor length (L) and width (W) were measured with calipers, and tumor volume was calculated using the formula: […]
(§5) For immunohistochemistry (IHC) analysis, tumors from the xenograft models were prepared as paraffin-embedded sections. […] The control group was counterstained with hematoxylin, and the IHC staining was evaluated under an optical microscope at 200× magnification.

Ki-67 = test: IHC of NCI-N87 xenograft tumors, Ki-67; type: in vivo, mice; conditions: vs control group
Description: as §4, §5

JIMT-1 xenograft = test: JIMT-1 xenograft, tumor growth; type: in vivo, mice; conditions: 4 mg/kg, intraperitoneal, eight times at 3-day intervals
Description: as §4

[5] = JIMT-1 xenograft, body weight; type: in vivo, mice; conditions: 4 mg/kg
Description: Xenograft mice were generated to evaluate the anticancer effects of the candidate compound. […] When the tumors reached a volume of 90-100 mm^3, the mice were randomized into designated groups. […] For the JIMT-1 xenograft, intraperitoneal administration was performed eight times at 3-day intervals. […] Tumor size changes were monitored until the mean tumor size in the control group reached 2,000-2,500 mm^3. On day 28 for the NCI-N87 xenograft and day 46 for the JIMT-1 xenograft, the mice were sacrificed, and tumors were excised to determine relative tumor sizes. Tumor length (L) and width (W) were measured with calipers, and tumor volume was calculated using the formula:
To assess resistance-avoidance effects in vivo, JIMT-1 xenograft mice were treated with 4 mg/kg of the candidate compound or TZMB.

PI3 Kinase (p110a/p85a), sequence (P42336 whole entry): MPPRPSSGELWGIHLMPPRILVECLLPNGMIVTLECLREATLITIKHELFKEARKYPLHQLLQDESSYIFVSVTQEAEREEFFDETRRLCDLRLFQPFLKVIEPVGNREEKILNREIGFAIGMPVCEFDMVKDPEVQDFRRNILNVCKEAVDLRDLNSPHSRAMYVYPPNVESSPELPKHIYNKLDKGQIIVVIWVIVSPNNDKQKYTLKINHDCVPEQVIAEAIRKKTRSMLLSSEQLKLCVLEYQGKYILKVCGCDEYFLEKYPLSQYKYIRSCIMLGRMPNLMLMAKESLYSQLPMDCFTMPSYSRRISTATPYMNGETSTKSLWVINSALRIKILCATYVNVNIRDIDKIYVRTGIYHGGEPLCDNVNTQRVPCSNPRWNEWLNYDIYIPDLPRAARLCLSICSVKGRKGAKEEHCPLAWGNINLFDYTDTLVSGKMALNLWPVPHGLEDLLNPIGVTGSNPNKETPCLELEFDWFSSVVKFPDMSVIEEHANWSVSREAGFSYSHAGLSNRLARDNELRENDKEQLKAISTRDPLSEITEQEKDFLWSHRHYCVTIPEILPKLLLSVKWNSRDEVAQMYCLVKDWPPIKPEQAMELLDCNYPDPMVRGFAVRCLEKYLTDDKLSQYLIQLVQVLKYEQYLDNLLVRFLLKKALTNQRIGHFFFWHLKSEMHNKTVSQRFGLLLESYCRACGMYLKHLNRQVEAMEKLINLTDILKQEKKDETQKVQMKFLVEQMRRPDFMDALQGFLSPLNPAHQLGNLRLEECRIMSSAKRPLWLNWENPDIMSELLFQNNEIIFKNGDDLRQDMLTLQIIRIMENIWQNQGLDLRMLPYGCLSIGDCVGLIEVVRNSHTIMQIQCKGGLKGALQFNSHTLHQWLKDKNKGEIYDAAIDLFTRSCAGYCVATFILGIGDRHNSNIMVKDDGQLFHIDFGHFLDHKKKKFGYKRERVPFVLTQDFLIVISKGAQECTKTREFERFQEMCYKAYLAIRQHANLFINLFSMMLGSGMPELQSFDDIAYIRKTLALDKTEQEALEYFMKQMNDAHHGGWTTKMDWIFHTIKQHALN
PI3 Kinase (p110a/p85a), sequence (P27986 whole entry partner): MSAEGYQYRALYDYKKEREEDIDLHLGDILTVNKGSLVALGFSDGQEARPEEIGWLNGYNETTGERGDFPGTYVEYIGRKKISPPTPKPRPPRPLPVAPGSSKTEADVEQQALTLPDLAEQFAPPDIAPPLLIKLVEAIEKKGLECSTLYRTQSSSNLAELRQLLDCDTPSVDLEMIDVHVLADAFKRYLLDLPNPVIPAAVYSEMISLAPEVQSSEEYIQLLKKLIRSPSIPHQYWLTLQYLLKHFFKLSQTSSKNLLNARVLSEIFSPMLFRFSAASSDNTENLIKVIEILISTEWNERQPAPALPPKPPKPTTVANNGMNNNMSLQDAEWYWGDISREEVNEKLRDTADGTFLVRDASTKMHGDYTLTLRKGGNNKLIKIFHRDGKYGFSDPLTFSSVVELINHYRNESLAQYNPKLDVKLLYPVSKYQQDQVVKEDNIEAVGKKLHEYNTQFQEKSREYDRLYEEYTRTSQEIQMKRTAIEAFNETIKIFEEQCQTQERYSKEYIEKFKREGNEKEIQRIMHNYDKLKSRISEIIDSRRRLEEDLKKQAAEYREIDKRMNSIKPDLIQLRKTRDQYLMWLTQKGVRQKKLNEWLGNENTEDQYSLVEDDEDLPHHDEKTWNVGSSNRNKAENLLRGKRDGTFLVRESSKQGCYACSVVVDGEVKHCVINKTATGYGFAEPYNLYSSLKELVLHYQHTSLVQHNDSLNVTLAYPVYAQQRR

Which results are given for CC(=O)N1N=C(c2cccc(O)c2)CC1c1ccc(Cl)cc1 (stereo not shown) [Compound 15, 1-[5-(4-Chlorophenyl)-3-(3-hydroxyphenyl)-4,5-dihydropyrazol-1-yl]-ethanone]?
growth of NCI-N87 cells [1]: significantly inhibited the growth of NCI-N87 cells; IC50 ([1]; Homo sapiens, NCI-N87, HER2-positive): 1.56 ± 0.14 µM; IC50 [2]: 9.99 ± 0.2 µM; Ki ([3]; 80 nM (His)6-MED23391-582, 10 nM FITC-ELF3129-145, Cheng-Prusoff, read-out: PPI inhibitory activity calculated based on Ki value): 4.27 ± 0.25 µM; decrease in FP signals ([3]; displacement of FITC-ELF3129-145 from MED23391-582): significant decrease in FP signals; HER2 gene expression level (HER2 gene): significantly downregulate HER2 gene and protein expression levels in a dose-dependent manner; inhibition at 10 µM (PI3 Kinase (p110a/p85a); 10 μM): 3%; inhibition at 25 µM (PI3 Kinase (p110a/p85a); 25 μM): 17%; kinase inhibitory activity in words [4]: no significant inhibitory activity; HER2 levels reduction (HER2): approximately 1.8 fold; proliferation marker Ki-67 (Ki-67): significant decrease; tumor growth and volume (JIMT-1 xenograft): significant decrease in tumor growth and volume; body weight [5]: remained generally consistent
